79 compounds from paper PMC12040169 (PLOS Biology, 2025) can be followed below.

The nature of this data set: in vitro. The note with it: human, hela cells, % viability.

For orientation: viability means a read-out of living cells in per cent, often relative to untreated cells. With `O=C(c1nc2ccccc2[nH]1)N1CCN(c2ccccc2)CC1` [CBK200167], the viability at 28.5 h, 10 µM stood at 103%.

As for `C=CCn1c(NCc2ccccc2NS(=O)(=O)c2ccc(C)cc2)nc2ccccc21` [CBK266393], the viability at 28.5 h, 10 µM is 111%.

As to `CC(C)(C)c1cc(C(c2ccccc2O)N2CCOCC2)cc(C(C)(C)C)c1O` (stereo not shown) [CBK262998], the viability at 28.5 h, 10 µM amounted to 86.4%.

Take `CCCC(=O)c1ccc(S(=O)(=O)N2CCCN(Cc3ccc(OC)c(F)c3)CC2)cc1` [CBK062926]: the viability at 28.5 h, 10 µM stood at 93.7%.

Consider `CC1CN(C(=O)NC2CCCCC2)C(c2ccccc2)ON1C` (stereo not shown) [CBK026650], for which the viability at 28.5 h, 10 µM was 109%.

Take `O=C(NC(c1ccc(-c2ccccc2)cc1)c1cnccn1)C1CCN(CCCN2C(=O)C3CCCCC3C2=O)CC1` (stereo not shown) [CBK147856]: the viability at 28.5 h, 10 µM was found to be 97.3%.

For the compound `CCCS(=O)(=O)NC(C)c1cnn(-c2ccc(OC)cc2)c1C` (stereo not shown) [CBK307319], the viability at 28.5 h, 10 µM is 115%.

With `CCOc1ccccc1OCc1nn2c(-c3ccncc3)nnc2s1` [CBK268535], the viability at 28.5 h, 10 µM turned out to be 111%.

With `Cc1cc(NS(=O)(=O)c2ccc(-c3ccon3)s2)n(C)n1` [CBK067257], the viability at 28.5 h, 10 µM came out at 85.4%.

With `CCOC(=O)N/N=C1\CCSc2sccc21` [CBK006300], the viability at 28.5 h, 10 µM stood at 110%.

In the case of `O=C1NC(=O)N(c2ccc(Cl)cc2)C(=O)/C1=C\NCCCO` [CBK261648], under “bulk resorufin, single well”, the viability at 28.5 h, 10 µM was found to be 90.2%.

Regarding `Nc1ncc(-c2cccc(F)c2)nc1-c1ccc(C(=O)N2CCOCC2)cc1` [CBK064131], the viability at 28.5 h, 10 µM stood at 88.4%.

For `Cc1cc2c(o1)CCc1sc(N(C)C(=O)C3CCCO3)nc1-2` (stereo not shown) [CBK281932], the viability at 28.5 h, 10 µM is 80.3%.

For `COc1ccc2ncc3c(c2c1)NCCNC3=O` [CBK291168], the viability at 28.5 h, 10 µM turned out to be 88.4%.

In the case of `NC1=C2NC(c3cccc(C(=O)O)c3)=NN2N(c2ccccc2)N1` [CBK093663], the viability at 28.5 h, 10 µM amounted to 98.7%.

`CN(C)C(CNc1nccnc1-c1ccccc1F)c1cccnc1` (stereo not shown) [CBK037290]: the viability at 28.5 h, 10 µM was 101%.

`Cc1nonc1NC(=O)CN1CCCC1` [CBK261840]: the viability at 28.5 h, 10 µM was found to be 109%.

In the case of `COc1ccc(-n2c(SCC(=O)c3ccccc3)nc(O)c(Cc3ccccc3)c2=O)cc1` [CBK263398], the viability at 28.5 h, 10 µM was 97.7%.

Turning to `COc1ccc(/N=c2/cc(C)[nH]c3ncnn23)cc1` [CBK287893], the viability at 28.5 h, 10 µM stood at 91.1%.

As for `O=C1CC(N2CCN(C/C=C/c3ccccc3)CC2)C(=O)N1CCc1ccccc1` (stereo not shown) [CBK262082], the viability at 28.5 h, 10 µM worked out at 83.6%.

With `CC(=O)c1ccc(-c2ccc(C(=O)N3CCN(C)CC3)c(N3CCOCC3)n2)s1` [CBK106181], the viability at 28.5 h, 10 µM was determined as 96.3%.

Regarding `Cc1ccc(C(=O)O)cc1NC(=O)C(=O)NCC(c1ccccc1)N(C)C` (stereo not shown) [CBK286777], the viability at 28.5 h, 10 µM worked out at 96.3%.

As to `O=C(c1ccc(F)cc1)[C@H]1CCCN(C(=O)c2n[nH]c3c2CCC3)C1` [CBK282322], the viability at 28.5 h, 10 µM worked out at 86.7%.

In the case of `CN1CCN(Cc2ccc(-c3ccc(C(N)=O)cc3)nc2)CC1` [CBK306750], the viability at 28.5 h, 10 µM is 87.3%.

Take `Cc1cc(=O)oc2cc(NC(=S)NNC(=O)C3CCN(Cc4ccc(F)cc4Cl)CC3)ccc12` [CBK266953]: the viability at 28.5 h, 10 µM turned out to be 99.4%.

Regarding `CN(C)C(CNS(=O)(=O)c1cc2c(cc1Br)NC(=O)CO2)c1ccc(F)cc1` (stereo not shown) [CBK298296], the viability at 28.5 h, 10 µM is 105%.

As to `Cc1ccc(Nc2nc(CSc3nnc(-c4ccccc4)o3)cs2)cc1` [CBK268455], the viability at 28.5 h, 10 µM was 99.7%.

As for `O=C(OCc1nc2cc3ccccc3cc2[nH]1)C1CCCCC1` [CBK018307], the viability at 28.5 h, 10 µM came out at 94%.

As for `O=C(O)COc1ccc(N2C(=O)C(O)=C(C(=O)c3ccccc3)C2c2cccc(F)c2)cc1` (stereo not shown) [CBK287010], the viability at 28.5 h, 10 µM was 96.8%.

As to `COC(=O)c1ccc2c(=O)n(CC(C)O)c(SC)nc2c1` (stereo not shown) [CBK305018], the viability at 28.5 h, 10 µM was found to be 88%.

On to `CCOC(=O)CCNC(=O)c1cncc(-c2ccc(C(=O)N3CCOCC3)cc2)c1` [CBK158645], for which the viability at 28.5 h, 10 µM worked out at 92.6%.

`CSc1ccccc1NC(=O)c1cccn(Cc2ccc(C)cc2)c1=O` [CBK294426]: the viability at 28.5 h, 10 µM stood at 87%.

Regarding `O=C(CN(c1cccc(Cl)c1)S(=O)(=O)c1ccccc1)NN=C1CCCCCC1` [CBK262519], the viability at 28.5 h, 10 µM is 89.9%.

In the case of `Cc1ccc2c(c1)-c1c(ssc1=S)C(C)(C)N2C(=O)COc1nc2ccccc2s1` [CBK262682], the viability at 28.5 h, 10 µM was 88%.

As for `O=C(O)C1C2CCC(O2)C1C(=O)Nc1cnn(Cc2ccccc2)c1` (stereo not shown) [CBK286849], the viability at 28.5 h, 10 µM stood at 96%.

Regarding `COc1ccc(NC(=O)Nc2cc3cccnc3c(Br)n2)c(C)c1` [CBK063294], the viability at 28.5 h, 10 µM worked out at 96.8%.

Turning to `Cn1cc(CNCC2CCN(c3ccccc3)C2)c(-c2ccncc2)n1` (stereo not shown) [CBK306317], the viability at 28.5 h, 10 µM came to 94.3%.

Regarding `COc1ccc(NS(=O)(=O)c2ccc3c(c2)N(CC(=O)O)C(=O)CO3)cc1NS(C)(=O)=O` [CBK297745], the viability at 28.5 h, 10 µM is 90.1%.

Take `COC(=O)CNC(c1ccccc1)c1cc(Br)ccc1NC(C)=O` (stereo not shown) [CBK262976]: the viability at 28.5 h, 10 µM is 119%.

For the compound `COCCCOc1cncc(NC(C)C)n1` [CBK115880], the viability at 28.5 h, 10 µM stood at 89%.

Turning to `Cc1cccc(-c2csc3c(=O)[nH]c(N4CCC5(CC4)OCCO5)nc23)c1` [CBK291142], the viability at 28.5 h, 10 µM was found to be 102%.

`O=C(CSc1nnc(-c2ccccc2F)n1-c1ccccc1)Nc1ccc2cn[nH]c2c1` [CBK267591]: the viability at 28.5 h, 10 µM turned out to be 81.9%.

Take `Cc1nn([C@H]2C[C@@H](O)[C@@H](CO)O2)c(=O)[nH]c1=O` [CBK201185]: the viability at 28.5 h, 10 µM was determined as 97.3%.

In the case of `O=C1CCOC[C@]2(CN(Cc3ccccc3)C[C@H]2c2ccccc2)N1` [CBK283367], the viability at 28.5 h, 10 µM worked out at 92.6%.

With `Cc1cc(O)n2nc(C)c(-c3ccc(F)cc3)c2n1` [CBK283642], the viability at 28.5 h, 10 µM was determined as 89.3%.

Consider `CCOc1ccc(CNc2ccc(S(N)(=O)=O)cc2)cc1` [CBK267962], for which the viability at 28.5 h, 10 µM is 89.3%.

Take `CCC1CCCCN1C(=O)c1oc2ccccc2c1C` (stereo not shown) [CBK078548]: the viability at 28.5 h, 10 µM worked out at 107%.

Consider `OCCNc1nc(O)cc(C(F)(F)F)n1` [CBK001804], for which the viability at 28.5 h, 10 µM was 99.5%.

Consider `CCCCOC(=O)c1ccc(NC(=O)c2c(Cl)cccc2Cl)cc1` [CBK263664], for which the viability at 28.5 h, 10 µM is 88.2%.

As to `CN(C)S(=O)(=O)N1CCC(C(=O)O)(c2ccccc2)CC1` [CBK286681], the viability at 28.5 h, 10 µM is 90.3%.

Turning to `Cc1cc(-c2cc(=O)n(Cc3ccc(F)cc3)nc2C2CC2)on1` [CBK284364], the viability at 28.5 h, 10 µM worked out at 98.2%.

For `O=C(CC1CCCCC1)N1CCN(c2ncccn2)CC1` [CBK144529], the viability at 28.5 h, 10 µM came to 102%.

As to `Cc1cc(C(=O)Oc2cccc(NC3=NS(=O)(=O)c4ccccc43)c2)c2ccccc2n1` [CBK265302], the viability at 28.5 h, 10 µM came out at 96.5%.

On to `COC(=O)C1=C(C)N(CCc2ccccc2)C(=O)C1(NC(=O)c1ccccc1)C(F)(F)F` (stereo not shown) [CBK267477], for which the viability at 28.5 h, 10 µM stood at 86%.

`O=S(=O)(c1ccc(C(F)(F)F)cc1Cl)N1CCCN(Cc2ccc(F)cc2F)CC1` [CBK062946]: the viability at 28.5 h, 10 µM is 91.8%.

`Cc1ccc(S(=O)(=O)c2cccc(S(N)(=O)=O)c2)cc1S(N)(=O)=O` [CBK264535]: the viability at 28.5 h, 10 µM came to 91.7%.

As for `CCc1ccc(CNC(=O)c2ccc3c(c2)NC(=O)C(N2CCOCC2)S3)cc1` (stereo not shown) [CBK071737], the viability at 28.5 h, 10 µM is 93.2%.

As to `Cc1c(C(=O)NC2CCCN(c3ncccn3)C2)cnn1C(C)(C)C` (stereo not shown) [CBK305652], the viability at 28.5 h, 10 µM is 91.3%.

On to `Cc1ccc(C(=O)N/C(=C\c2cccc([N+](=O)[O-])c2)C(=O)NC2CCCCC2)cc1` [CBK261407], for which the viability at 28.5 h, 10 µM turned out to be 89.2%.

Take `Cc1ccc(S(=O)(=O)Nc2ccsc2C(=O)Nc2ccc(F)cc2)cc1` [CBK004571]: the viability at 28.5 h, 10 µM stood at 91%.

For the compound `CN1CCCCC1CC(=O)Nc1ccc2ncn(C)c2c1` (stereo not shown) [CBK281747], the viability at 28.5 h, 10 µM worked out at 87.6%.

With `CC(=O)N(C)c1ncc(Br)cc1C(=O)NCCc1ccccc1` [CBK076543], the viability at 28.5 h, 10 µM is 93.8%.

`O=C1NCCNC(=O)C2(C/C=C/COc3ccccc31)CCN(C(=O)c1ccc3[nH]nnc3c1)CC2` [CBK292000]: the viability at 28.5 h, 10 µM stood at 106%.

With `COC(=O)c1sc(NC(=O)c2cccnc2)c(C#N)c1C` [CBK265007], the viability at 28.5 h, 10 µM turned out to be 89.4%.

In the case of `CN(C)CCN(C)c1cncc(-c2cc3ccccc3o2)n1` [CBK066028], the viability at 28.5 h, 10 µM amounted to 92.7%.

Consider `N=c1n(CCCOc2ccccc2Cl)c2ccccc2n1CC(N)=O` [CBK268927C], for which the viability at 28.5 h, 10 µM amounted to 106%.

With `CC(=O)Nc1ccccc1OCc1cc(-c2ccccc2)on1` [CBK296617], the viability at 28.5 h, 10 µM turned out to be 99.8%.

For the compound `COc1ccc(-c2cc(C(=O)NCCc3ccncc3)cnc2-c2ccc(F)cc2)cc1` [CBK037434], the viability at 28.5 h, 10 µM amounted to 91.5%.

As to `O=C1NC(=O)C(CCCCN2CCC[C@@H]2CN2CCCC2)N1` (stereo partly shown) [CBK149110], the viability at 28.5 h, 10 µM was 93.4%.

Regarding `COC(=O)c1ccc(CNc2nc(OC)cc(OC)n2)cc1` [CBK093391], the viability at 28.5 h, 10 µM stood at 95%.

`O=C1NC2(CCNCC2)Oc2ccc(-c3cccnc3)cc21` [CBK086611]: the viability at 28.5 h, 10 µM stood at 95.4%.

`Cc1ccc(C)n1C1CC(C)(C)NC(C)(C)C1` [CBK019116]: the viability at 28.5 h, 10 µM stood at 91.1%.

On to `CN(C)C(=O)c1cc(Br)cnc1NCCCn1ccnc1` [CBK076378], for which the viability at 28.5 h, 10 µM was found to be 98%.

With `O=C(C1=Cc2ccccc2OC1)N1CCC(c2ccncc2)CC1` [CBK282339], the viability at 28.5 h, 10 µM was found to be 104%.

As for `O=c1[nH]c2ccc(S(=O)(=O)Nc3ccc(-c4ccccc4)cc3)cc2[nH]1` [CBK266999], the viability at 28.5 h, 10 µM is 99.8%.

For `O=C(Nc1ccc(N2CCN(C(=O)c3ccccc3F)CC2)cc1)c1nc[nH]n1` [CBK269497], the viability at 28.5 h, 10 µM stood at 107%.

With `CC(C)Cc1csc(C2CN3CCCC3CO2)n1` (stereo not shown) [CBK304807], the viability at 28.5 h, 10 µM amounted to 83.9%.

As to `Cc1ccc(-c2cc(O)n(-c3nc(C)cc(C)n3)n2)cc1` [CBK270165], the viability at 28.5 h, 10 µM is 97.1%.

As to `Cc1cc(N2C(=O)NS(=O)(=O)c3cccnc32)ccc1F` [CBK288461], the viability at 28.5 h, 10 µM is 90.5%.
